Legend:
Type in all cases: biochemical
Settings in all cases: 25 mM HEPES pH 7.0, 10 mM MgCl2, 5 mM DTT, 10 mM substrate, 30 C, 30 min
[1] = target: T1, RtTPS3 (Rhodomyrtus tomentosa, UniProt A0A385J6Y9); assay: product formation by GC-MS
T1 construct: gene TPS3; 52 residues upstream of RRX8W motif; TPS-a subfamily
T1 sequence (A0A385J6Y9 1-597): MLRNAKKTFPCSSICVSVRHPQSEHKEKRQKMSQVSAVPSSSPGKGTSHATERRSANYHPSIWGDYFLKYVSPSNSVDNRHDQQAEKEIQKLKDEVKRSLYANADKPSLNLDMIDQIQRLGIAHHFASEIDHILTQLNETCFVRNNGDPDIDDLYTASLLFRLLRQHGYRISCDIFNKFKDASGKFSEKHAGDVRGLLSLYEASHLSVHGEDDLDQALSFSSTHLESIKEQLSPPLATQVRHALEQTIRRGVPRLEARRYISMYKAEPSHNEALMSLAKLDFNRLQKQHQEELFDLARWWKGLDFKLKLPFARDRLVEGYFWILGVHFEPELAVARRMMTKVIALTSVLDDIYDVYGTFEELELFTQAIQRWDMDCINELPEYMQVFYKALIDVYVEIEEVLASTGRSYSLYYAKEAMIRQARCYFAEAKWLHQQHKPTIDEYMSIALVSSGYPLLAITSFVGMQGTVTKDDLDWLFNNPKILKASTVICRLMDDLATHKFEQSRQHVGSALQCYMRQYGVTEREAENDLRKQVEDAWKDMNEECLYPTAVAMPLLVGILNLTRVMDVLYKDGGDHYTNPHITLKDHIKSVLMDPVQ

[2] = target: T2, RtTPS1 (Rhodomyrtus tomentosa, UniProt A0A385J6X8); assay: product formation by GC-MS
T2 construct: gene TPS1; 38 residues upstream of RRX8W motif; TPS-b subfamily
T2 sequence (A0A385J6X8 1-581): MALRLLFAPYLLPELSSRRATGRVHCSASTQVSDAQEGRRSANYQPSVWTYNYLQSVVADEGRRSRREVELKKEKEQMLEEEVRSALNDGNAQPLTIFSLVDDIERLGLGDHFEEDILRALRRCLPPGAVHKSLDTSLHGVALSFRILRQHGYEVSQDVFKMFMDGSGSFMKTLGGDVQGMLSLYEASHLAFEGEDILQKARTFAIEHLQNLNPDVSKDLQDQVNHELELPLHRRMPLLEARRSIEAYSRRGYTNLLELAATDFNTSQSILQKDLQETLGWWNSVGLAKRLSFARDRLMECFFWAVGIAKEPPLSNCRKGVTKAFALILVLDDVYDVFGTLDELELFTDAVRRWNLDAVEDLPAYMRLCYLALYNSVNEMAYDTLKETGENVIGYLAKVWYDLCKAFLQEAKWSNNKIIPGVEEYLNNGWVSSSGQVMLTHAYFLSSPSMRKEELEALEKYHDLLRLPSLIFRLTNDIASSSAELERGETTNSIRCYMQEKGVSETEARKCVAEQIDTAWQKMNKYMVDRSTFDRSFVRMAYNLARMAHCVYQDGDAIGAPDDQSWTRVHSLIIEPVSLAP

[3] = target: T1, RtTPS3; assay: product formation by GC-MS and chiral GC-FID
[4] = target: T3, RtTPS4 (Rhodomyrtus tomentosa, UniProt A0A385J6Y5); assay: product formation by GC-MS and chiral GC-FID
T3 construct: gene TPS4; 48 residues upstream of RRX8W motif; TPS-a subfamily
T3 sequence (A0A385J6Y5 1-594): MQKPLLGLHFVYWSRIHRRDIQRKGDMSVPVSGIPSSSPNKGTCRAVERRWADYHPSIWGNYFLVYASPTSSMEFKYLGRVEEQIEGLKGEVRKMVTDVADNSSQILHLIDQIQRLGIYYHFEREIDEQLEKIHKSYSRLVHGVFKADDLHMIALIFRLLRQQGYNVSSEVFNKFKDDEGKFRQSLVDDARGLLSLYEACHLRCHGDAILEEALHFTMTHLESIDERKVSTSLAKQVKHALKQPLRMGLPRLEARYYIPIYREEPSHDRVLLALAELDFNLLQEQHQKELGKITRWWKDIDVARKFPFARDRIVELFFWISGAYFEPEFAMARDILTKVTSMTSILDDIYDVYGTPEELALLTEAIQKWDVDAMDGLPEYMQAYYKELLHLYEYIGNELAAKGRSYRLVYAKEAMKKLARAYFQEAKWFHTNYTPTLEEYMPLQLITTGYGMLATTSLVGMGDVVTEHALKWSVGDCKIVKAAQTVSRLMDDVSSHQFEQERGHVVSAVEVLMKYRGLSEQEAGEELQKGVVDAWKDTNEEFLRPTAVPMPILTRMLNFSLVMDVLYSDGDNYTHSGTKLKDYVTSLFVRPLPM

[5] = target: T2, RtTPS1; assay: product formation by GC-MS and chiral GC-FID
[6] = target: T4, RtTPS2 (Rhodomyrtus tomentosa, UniProt A0A385J6Y6); assay: product formation by GC-MS and chiral GC-FID
T4 construct: gene TPS2; TPS-b subfamily
T4 sequence (A0A385J6Y6 1-599): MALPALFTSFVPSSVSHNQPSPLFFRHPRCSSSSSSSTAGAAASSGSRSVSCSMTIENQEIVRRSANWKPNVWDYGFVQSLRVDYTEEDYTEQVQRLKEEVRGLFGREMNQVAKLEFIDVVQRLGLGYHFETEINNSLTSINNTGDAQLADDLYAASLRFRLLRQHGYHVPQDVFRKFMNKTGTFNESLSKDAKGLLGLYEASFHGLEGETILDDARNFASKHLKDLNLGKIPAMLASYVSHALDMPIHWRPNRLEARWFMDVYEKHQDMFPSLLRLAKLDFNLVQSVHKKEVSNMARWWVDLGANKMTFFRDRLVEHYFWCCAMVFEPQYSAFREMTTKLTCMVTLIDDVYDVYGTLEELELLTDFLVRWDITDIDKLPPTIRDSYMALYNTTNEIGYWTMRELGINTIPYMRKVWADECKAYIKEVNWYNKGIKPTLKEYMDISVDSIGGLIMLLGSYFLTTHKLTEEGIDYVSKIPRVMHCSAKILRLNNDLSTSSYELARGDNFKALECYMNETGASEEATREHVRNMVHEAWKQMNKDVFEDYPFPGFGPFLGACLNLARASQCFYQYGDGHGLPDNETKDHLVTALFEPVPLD

Compound	product formation by GC-MS [1]	product formation by GC-MS [2]	product formation by GC-MS and chiral GC-FID [3]	product formation by GC-MS and chiral GC-FID [4]	product formation by GC-MS and chiral GC-FID [5]	product formation by GC-MS and chiral GC-FID [6]
CC(C)=CCC/C(C)=C/CC/C(C)=C/COP(=O)(O)OP(=O)(O)O [FPP]	RtTPS1 and RtTPS3 are also active with FPP, producing β-caryophyllene	RtTPS1 and RtTPS3 are also active with FPP, producing β-caryophyllene	–	–	–	–
CC(C)=CCC/C(C)=C/COP(=O)(O)OP(=O)(O)O [GPP]	–	–	RtTPS1-4 produce mainly (+)-α-pinene and (+)-β-pinene	RtTPS1-4 produce mainly (+)-α-pinene and (+)-β-pinene	RtTPS1-4 produce mainly (+)-α-pinene and (+)-β-pinene	RtTPS1-4 produce mainly (+)-α-pinene and (+)-β-pinene
